In ChEMBL document CHEMBL1149961, “Design, synthesis, activity, and structure of a novel class of matrix metalloproteinase inhibitors containing a heterocyclic P2-P3 amide bond isostere” (Bioorg Med Chem Lett, 1996):

How the values were obtained:
Interstitial collagenase = biological target: T1, Interstitial collagenase (Homo sapiens, UniProt P03956); test: Inhibition of human fibroblast collagenase, matrix metalloprotease-1
T1 sequence (P03956 whole entry): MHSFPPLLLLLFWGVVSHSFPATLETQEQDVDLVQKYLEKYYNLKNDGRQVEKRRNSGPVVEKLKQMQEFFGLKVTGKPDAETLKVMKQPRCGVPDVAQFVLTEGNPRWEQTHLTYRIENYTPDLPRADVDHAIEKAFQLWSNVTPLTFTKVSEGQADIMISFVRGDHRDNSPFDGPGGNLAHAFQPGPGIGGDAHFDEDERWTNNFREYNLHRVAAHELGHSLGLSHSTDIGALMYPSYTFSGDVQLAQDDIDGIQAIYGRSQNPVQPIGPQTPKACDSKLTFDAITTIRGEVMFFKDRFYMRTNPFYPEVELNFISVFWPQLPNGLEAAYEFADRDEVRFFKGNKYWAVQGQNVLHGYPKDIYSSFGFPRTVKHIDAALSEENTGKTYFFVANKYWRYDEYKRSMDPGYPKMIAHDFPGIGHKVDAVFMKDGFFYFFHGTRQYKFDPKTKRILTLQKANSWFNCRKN

Matrilysin = biological target: T2, Matrilysin (Homo sapiens, UniProt P09237); test: Inhibition of matrilysin, matrix metalloprotease-7
T2 sequence (P09237 whole entry): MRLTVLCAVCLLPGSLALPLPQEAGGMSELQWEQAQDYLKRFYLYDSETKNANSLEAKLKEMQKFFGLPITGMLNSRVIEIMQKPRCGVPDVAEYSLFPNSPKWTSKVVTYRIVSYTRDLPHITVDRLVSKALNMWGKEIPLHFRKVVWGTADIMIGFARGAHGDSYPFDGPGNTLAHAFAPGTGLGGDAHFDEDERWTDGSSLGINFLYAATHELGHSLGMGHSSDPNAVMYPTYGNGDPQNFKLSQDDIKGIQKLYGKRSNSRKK

Stromelysin-1 = Stromelysin-1 (Homo sapiens, UniProt P08254); test: Inhibition of human fibroblast stromelysin, matrix metalloprotease-3
Sequence of Stromelysin-1 (P08254 whole entry): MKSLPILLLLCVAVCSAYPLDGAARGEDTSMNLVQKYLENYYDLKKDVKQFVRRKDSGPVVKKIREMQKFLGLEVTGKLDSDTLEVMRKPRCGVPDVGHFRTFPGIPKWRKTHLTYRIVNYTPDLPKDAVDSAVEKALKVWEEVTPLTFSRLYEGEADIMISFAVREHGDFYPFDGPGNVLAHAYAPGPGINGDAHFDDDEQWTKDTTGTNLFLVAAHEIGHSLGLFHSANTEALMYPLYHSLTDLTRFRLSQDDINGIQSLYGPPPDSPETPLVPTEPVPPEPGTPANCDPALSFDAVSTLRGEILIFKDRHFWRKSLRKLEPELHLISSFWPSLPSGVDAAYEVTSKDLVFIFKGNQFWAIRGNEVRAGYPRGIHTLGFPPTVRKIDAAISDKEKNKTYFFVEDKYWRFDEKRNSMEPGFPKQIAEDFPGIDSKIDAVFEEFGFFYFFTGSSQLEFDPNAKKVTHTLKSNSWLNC

Row | IC50 (Interstitial collagenase) | IC50 (Matrilysin) | IC50 (Stromelysin-1) | Structure (SMILES)
1 | 6 nM | 10 nM | 30 nM | COc1ccc2nc([C@H](CC(C)C)NC(=O)[C@@H](CC(=O)NO)CC(C)C)[nH]c2c1
2 | 7 nM | 10 nM | 20 nM | CC(C)C[C@H](CC(=O)NO)C(=O)N[C@@H](CC(C)C)c1nc2cc(C(F)(F)F)ccc2[nH]1
3 | 3500 nM | 70 nM | 320 nM | COC(=O)c1[nH]c([C@H](CC(C)C)NC(=O)[C@@H](CC(=O)NO)CC(C)C)nc1-c1ccccc1
4 | 29 nM | 2 nM | 8 nM | CC(C)C[C@H](CC(=O)NO)C(=O)N[C@@H](CC(C)C)c1nc2ccccc2[nH]1
5 | 3 nM | 1 nM | 5 nM | COC(=O)c1ccc2nc([C@H](CC(C)C)NC(=O)[C@@H](CC(=O)NO)CC(C)C)[nH]c2c1
6 | 40 nM | 33 nM | 68 nM | CC(C)C[C@H](CC(=O)NO)C(=O)N[C@@H](CC(C)C)c1nc2cc(Cl)c(Cl)cc2[nH]1

The next lines start with the molecule.

Row | Structure (SMILES) | IC50 (Interstitial collagenase) | IC50 (Matrilysin) | IC50 (Stromelysin-1)
7 | COC(=O)c1ccc(NC(=O)[C@H](CC(C)C)NC(=O)[C@@H](CC(=O)NO)CC(C)C)cc1 | 6.9 nM | 0.23 nM | 0.8 nM
8 | CC(C)C[C@H](CC(=O)NO)C(=O)N[C@@H](CC(C)C)c1ncc[nH]1 | 9 nM | 50 nM | 320 nM
9 | CC(C)C[C@H](CC(=O)NO)C(=O)N[C@@H](CC(C)C)c1nc(-c2ccccc2)c[nH]1 | 170 nM | 1 nM | 112 nM
10 | CC(C)C[C@H](CC(=O)NO)C(=O)N[C@@H](Cc1c[nH]c2ccccc12)c1nc2ccccc2[nH]1 | 22 nM | 10 nM | 29 nM
11 | CC(C)C[C@H](NC(=O)[C@@H](CC(=O)NO)C1CCCCC1)c1nc(-c2ccccc2)c[nH]1 | 480 nM | 3.1 nM | 5900 nM
12 | CC(C)C[C@H](CC(=O)NO)C(=O)N[C@@H](Cc1c[nH]c2ccccc12)c1ncc[nH]1 | 18 nM | 18 nM | 280 nM
